Test results as given in ChEMBL document CHEMBL1126449, “Synthesis and anti-acetylcholinesterase activity of 1-benzyl-4-[(5,6-dimethoxy-1-indanon-2-yl)methyl]piperidine hydrochloride (E2020) and related compounds” (Bioorg Med Chem Lett, 1992).

Biological target: T1, Acetylcholinesterase (Mus musculus, UniProt P21836)
T1 sequence (P21836 whole entry): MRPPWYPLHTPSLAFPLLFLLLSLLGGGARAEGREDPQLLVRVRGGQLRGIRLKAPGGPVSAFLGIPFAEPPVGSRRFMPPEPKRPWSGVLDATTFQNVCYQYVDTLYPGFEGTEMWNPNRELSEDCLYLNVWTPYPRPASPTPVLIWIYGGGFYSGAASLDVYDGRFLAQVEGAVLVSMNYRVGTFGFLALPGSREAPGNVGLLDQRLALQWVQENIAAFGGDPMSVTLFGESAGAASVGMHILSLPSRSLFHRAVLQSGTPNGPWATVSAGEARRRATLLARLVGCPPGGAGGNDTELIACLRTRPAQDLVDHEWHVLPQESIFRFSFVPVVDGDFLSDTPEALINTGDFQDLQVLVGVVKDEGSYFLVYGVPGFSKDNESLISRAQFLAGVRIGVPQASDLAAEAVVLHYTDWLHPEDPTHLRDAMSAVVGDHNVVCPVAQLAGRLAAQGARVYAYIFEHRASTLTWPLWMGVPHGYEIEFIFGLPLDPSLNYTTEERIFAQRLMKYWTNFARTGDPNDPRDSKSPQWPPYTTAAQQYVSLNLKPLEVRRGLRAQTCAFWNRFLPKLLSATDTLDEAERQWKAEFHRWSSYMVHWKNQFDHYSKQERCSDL
Experiment: biochemical
Description: Inhibition of Acetylcholinesterase activity in mouse brain homogenate

Structure (SMILES) | IC50 [nM]
COc1cc2c(cc1OC)C(=O)/C(=C/C1CCN(Cc3ccccc3)CC1)C2 | 13
COc1cc2c(cc1OC)C(=O)C(CC1CCN(Cc3cccc(C)c3)CC1)C2 (configuration not stated) | 2.7
COc1cc2c(cc1OC)C(=O)C(CC1CCN(Cc3ccc([N+](=O)[O-])cc3)CC1)C2 (configuration not stated) | 100
COc1cc2c(cc1OC)CC(CC1CCN(Cc3ccccc3)CC1)=C2 | 4400
COc1cc2c(cc1OC)C(=O)C(CC1CCN(Cc3ccccc3C)CC1)C2 (configuration not stated) | 10
COc1cc2c(cc1OC)C(=O)/C(=C/CC1CCN(Cc3ccccc3)CC1)C2 | 150
COc1cc2c(cc1OC)C(=O)C(CC1CCN(CC3CCCCC3)CC1)C2 (configuration not stated) | 8.9
COc1cc2c(cc1OC)C(=O)C(CC1CCN(CCc3ccccc3)CC1)C2 (configuration not stated) | 180
COc1cc2c(cc1OC)C(=O)C(CN1CCN(Cc3ccccc3)CC1)C2 (configuration not stated) | 94
COc1cc2c(cc1OC)C(O)C(CC1CCN(Cc3ccccc3)CC1)C2 (configuration not stated) | 300
COc1cc2c(cc1OC)C(=O)C(CC1CCN(Cc3cccc([N+](=O)[O-])c3)CC1)C2 (configuration not stated) | 4
COc1cc2c(cc1OC)C(=O)C(CC1CCN(C(=O)c3ccccc3)CC1)C2 (configuration not stated) | > 10000
